Measurements reported in patent US20240299394A1, “TARGETED TREATMENT FOR SKIN FRAGILITY DISEASES” (University of Washington, priority 2023, published 2024).

Legend:
[1] = test system: NHEKs; test: Immunofluorescence of plakoglobin / desmosomal protein localization; type: cell-based, human; details: B-RAF inhibitor alone, 24 hours in E-medium
Experimental: Keratinocytes were grown to confluency in 35 mm glass-bottom cell culture dishes (MatTek of Ashland, MA, Cat. #P35G-1.5-20-C). For staining keratins and desmosomal proteins, cells were fixed in ice-cold 100% methanol at −20° C. for 2 minutes, allowed to dry, then re-hydrated in PBS. For staining other proteins, cells were fixed in 4% paraformaldehyde for 10 minutes at 37° C. Fixed cells were then incubated with blocking buffer [0.5% (w/v) bovine serum albumin (BSA, Sigma), 10% (w/v) normal goat serum (NGS, Sigma) in PBS] for 30 min at 37° C. Cells were then washed with PBS. Primary antibodies were diluted in 0.5% (w/v) BSA in PBS and incubated on the cells overnight at 4° C. Primary antibody dilutions were as follows: chicken anti-plakoglobin (1:1000). […]
Images were acquired on a Hamamatsu ORCA-FusionBT sCMOS camera (Hamamatsu of Hamamatsu City, Japan) using a Yokogawa W1 spinning-disk confocal (SDC) system (Yokogawa of Musashino, Tokyo, Japan) on a Nikon Ti2 microscope (Nikon of Minato City, Tokyo, Japan). Samples were illuminated using 405, 488, 561, and 640 nm laser excitation lines and fluorescence was detected using a 60×1.2 numerical aperture (NA) water objective (Nikon) with standard emission filters.

[2] = B-RAF inhibitor monotherapy for cancer (Carlos G, et al. 2015); cited from earlier work
[3] = test system: NHEK monolayers; test: Monolayer mechanical dissociation assay, SERCA2 inhibition with thapsigargin; type: cell-based, human; details: with 1 μM TG, 24 hours; 1 μM Tram, 10 μM U0126, 20 μM PD98059, 1 μM dabrafenib
Experimental: Dispase-based mechanical dissociation assays were carried out as described (Simpson C L, et al. Am J Pathol. 2010; 177(6): p. 2921-37). Keratinocytes were plated at a density of 1×10^6 cells per well of 6-well cell culture dishes. Upon reaching confluence, the calcium concentration of the medium was adjusted to 1.3 mM. Vehicle control (DMSO) or chemical inhibitors were added at the following concentrations: […] After 24 to 72 hours, monolayers were washed with PBS and then incubated with 500 μL dispase (5 U/ml) in Hank's balanced salt solution (Stemcell Technologies of Vancouver, CA, Cat. #07913) for 30 minutes at 37° C. Next, 4.5 ml PBS was added to the wells and all liquid plus released monolayers were transferred into 15 mL conical tubes, which were placed together in a rack and inverted 5-10 times to induce mechanical stress. Monolayer fragments were transferred back into 6-well cell culture plates and imaged with a 12-megapixel digital camera. Fragments were counted in Fiji.

[4] = test system: organotypic epidermis of NHEKs; test: Organotypic epidermis treated with B-RAF inhibitors (H&E, immunostaining); type: cell-based, human; details: Dab or Vem alone, 48 hours
Experimental: Inhibitors were used at the following concentrations: Dabrafenib (1 μM), vemurafenib (10 μM), trametinib (1 μM).
Paraffin-embedded formalin-fixed tissue cross-sections on glass slides were incubated at 65° C. for 2 hours. Sections were prepared for staining by immersion in 3 baths of xylenes (Fisher) for 5 minutes each, followed by 3 baths of 95% ethanol for 5 minutes each, then 70% ethanol for 5 minutes, and finally 3 baths of PBS for 5 minutes each.

[5] = test system: ERK; test: ERK biosensor (ERK-KTR-mClover) live imaging; type: cell-based, human; details: Dab or Vem alone, 24 h, 1.2 mM calcium
Experimental: For live imaging of the ERK biosensor, NHEKs were transduced with ERK-KTR-mClover (Addgene Cat. #59150). HEK293FT cells were grown in complete DMEM, then transfected with 4 μg pLenti-CMV-PuroDEST-ERK-KTR-mClover DNA plus 12 μl FuGENE 6 (Promega of Madison, WI, Cat. #E2691) in 800 μL of Opti-MEM (Thermo-Fisher Cat. #31985070), which was added to the cells and left overnight. Lentiviral supernatants were collected the next day and polybrene (Sigma Cat. #H9268) was added at a concentration of 4 μg/mL. M154 was removed from NHEKs and replaced with viral medium for 1 hour at 37° C. Cells were then washed in PBS and placed back in their normal medium and expanded in culture.
ERK-KTR-mClover-transduced cells were seeded into 35 mm glass-bottom dishes in low calcium medium (0.31 mM) and grown to confluency. […] Using Fiji (Fiji software, https://github.com/fiji/fiji), the nuclear region was encircled with the polygon tool and the “Measure” function was used to calculate the mean fluorescence intensity; after using the “Cut” function to remove the nuclear region, then remaining cytoplasmic region was encircled with the polygon tool and the “Measure” function was used to calculate the mean fluorescence intensity. The ERK activity index was calculated as the ratio of the cytoplasmic integrated fluorescence intensity (active) to the nuclear integrated fluorescence intensity.

[6] = test system: NHEK monolayers; test: Monolayer mechanical dissociation assay, B-RAF inhibitor model of Grover disease; type: cell-based, human; details: Dabrafenib 1 μM or vemurafenib 10 μM alone, 24 h
Experimental: Dispase-based mechanical dissociation assays were carried out as described (70). Keratinocytes were plated at a density of 1×10^6 cells per well of 6-well cell culture dishes. Upon reaching confluence, the cells were switched into E-medium. Vehicle control (DMSO) or chemical inhibitors were added at the following concentrations: Dabrafenib (1 μM), vemurafenib (10 μM) trametinib (1 μM), U0126 (10 μM), or PD98059 (20 μM). After 24 h, monolayers were washed with PBS and then incubated with 500 μL dispase (5 U/ml) in Hank's balanced salt solution (Stemcell Technologies of Vancouver, Canada, Cat. #07913) for 30 minutes at 37° C. Next, 4.5 mL PBS was added to the wells and all liquid plus released monolayers were transferred into 15 mL conical tubes, which were placed together in a rack and inverted 1-10 times to induce mechanical stress. Monolayer fragments were transferred back into 6-well cell culture plates and imaged with a 12-megapixel digital camera. Fragments were counted in Fiji.

Q: Which “localization of desmosomal proteins” value [1] does the source give for `CC(C)(C)c1nc(-c2cccc(NS(=O)(=O)c3c(F)cccc3F)c2F)c(-c2ccnc(N)n2)s1` [dabrafenib] here?
A: induced mislocalization of desmosomal proteins

Q: What about the “patients in whom GD was seen” value [2] of the same compound?
A: 42.9%

Q: What about the “integrity of epithelial sheets despite SERCA2 inhibition” value [3] of the same compound?
A: did not promote intercellular adhesion, but rather exacerbated the effect of TG

Q: What about the “localization of plakoglobin to cell-cell junctions” value [4] of the same compound?
A: reduced localization of plakoglobin to cell-cell junctions

Q: What about the “ERK activity (biosensor)” value [5] of the same compound?
A: induced ERK activation

Q: And the “number of fragments upon mechanical stress” value [6]?
A: an increase in the number of fragments

Q: And the “number of fragments upon mechanical stress” value ([6]; listed as Dab)?
A: readily fragmented
